We go through 11 compounds from ChEMBL document CHEMBL1201862, “PubChem BioAssay data set” (2004).

Some test systems named below: A498; ACHN; BT-549; DU-145; HOP-92; HT-29; Hs-578T; IGROV-1; MCF7; MDA-MB-231; NCI-H460; OVCAR-5; PC-3; SK-MEL-28; U-251; UACC-257; NCI-H226; SNB-75; M14.
Holding throughout (assay): NCI anticancer screen, dose series, 48 h

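48-hour exposure; five concentrations; linearly interpolated endpoints. GI50 = concentration required for 50% inhibition of growth.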 Activity calls are given as the source filed them. No stated cut-off is given here; in the data, active = GI50 up to about 1.1 µM and inactive = higher. Some results are limits rather than exact numbers.

Turning to `O=C(CNC(c1ccccc1)(c1ccccc1)c1ccccc1)NC1CCCCC1NC(=O)CNC(c1ccccc1)(c1ccccc1)c1ccccc1` (stereo not given), the GI50 is > 100 µM (inactive) with A498; > 100 µM (inactive) in the assay on ACHN; > 100 µM (inactive) in the assay with BT-549; > 100 µM (inactive) in the assay with DU-145; 12 µM (inactive) in the assay on HOP-92; > 100 µM (inactive) in the assay on HT-29. In addition, the GI50 in the assay on Hs-578T is 32.9 µM (inactive); in the assay with IGROV-1 it was > 100 µM (inactive); in the assay with MCF7, > 100 µM (inactive); in the assay on MDA-MB-231, > 100 µM (inactive); in the assay with NCI-H460 it was > 100 µM (inactive); in the assay with OVCAR-5, > 100 µM (inactive). Also, the GI50 was > 100 µM (inactive) with PC-3, > 100 µM (inactive) in the assay with SK-MEL-28, 43 µM (inactive) in the assay with U-251 and > 100 µM (inactive) with UACC-257.

Take `Nc1nc(Cl)cc(NCC2(O)CCCC2)n1`: the GI50 in the assay with A498, in the assay on ACHN, with BT-549, in the assay on DU-145, in the assay on HOP-92 and in the assay with HT-29 was > 100 µM (inactive) each time. Moreover, the GI50 in the assay on Hs-578T, with IGROV-1, in the assay on MCF7, in the assay on MDA-MB-231, in the assay on NCI-H226 and with NCI-H460 was > 100 µM (inactive) each time. In addition, the GI50 with OVCAR-5, in the assay on PC-3, in the assay on SK-MEL-28, with SNB-75, with U-251 and in the assay on UACC-257 was > 100 µM (inactive) in each case.

As for `C#CCn1c2c(c3ccccc3c1=O)C(=O)c1ccccc1-2`, the GI50 with A498 is 22.7 µM (inactive); in the assay with BT-549 it was 22.1 µM (inactive); in the assay with DU-145, 11.7 µM (inactive); with HOP-92, 29.9 µM (inactive); in the assay with HT-29, 10.7 µM (inactive); in the assay on Hs-578T it was 15.8 µM (inactive). Further, the GI50 in the assay on IGROV-1 was 15.7 µM (inactive); in the assay on M14, 42.8 µM (inactive); with MCF7 it was 9.06 µM (inactive); with MDA-MB-231, 15.2 µM (inactive); in the assay on NCI-H226, 16.7 µM (inactive); with OVCAR-5, 24.7 µM (inactive). Moreover, the GI50 is 11.7 µM (inactive) in the assay with PC-3; 26.6 µM (inactive) with SK-MEL-28; 13.4 µM (inactive) in the assay on SNB-75; 15.2 µM (inactive) in the assay on U-251; 32.3 µM (inactive) in the assay with UACC-257.

Consider `CC(=O)Nn1cnc(C(=N)C#N)c1N`, for which the GI50 with A498, with ACHN, with BT-549, in the assay with DU-145, in the assay on HT-29 and with Hs-578T was > 100 µM (inactive) in each case. In addition, the GI50 in the assay on IGROV-1, with M14, in the assay on MCF7, in the assay on MDA-MB-231, in the assay with NCI-H226 and with NCI-H460 was > 100 µM (inactive) each time. Also, the GI50 with OVCAR-5, in the assay on PC-3, in the assay on SK-MEL-28, with SNB-75, in the assay on U-251 and in the assay on UACC-257 was > 100 µM (inactive) each time.

`COc1ccc(/C(=N/OCCCC(=O)O)c2cccs2)cc1`: the GI50 in the assay on A498, in the assay with ACHN, in the assay with BT-549, in the assay with DU-145, with HOP-92 and in the assay with HT-29 was > 100 µM (inactive) in each case. In addition, the GI50 in the assay with Hs-578T, in the assay with MCF7, with MDA-MB-231, in the assay on NCI-H226, in the assay with NCI-H460 and in the assay on OVCAR-5 was > 100 µM (inactive) in each case. For the same compound, the GI50 in the assay with PC-3, in the assay on SNB-75, with U-251 and in the assay with UACC-257 was > 100 µM (inactive) each time.

Take `CCOC(=O)c1ccc(C(=O)/C(C#N)=C2\CCCN2C)[nH]1`: the GI50 in the assay with A498, in the assay on ACHN, with BT-549, in the assay on DU-145, in the assay with HT-29 and in the assay with Hs-578T was > 100 µM (inactive) each time. Moreover, the GI50 in the assay with IGROV-1, in the assay on M14, in the assay on MCF7, with MDA-MB-231, with NCI-H226 and with NCI-H460 was > 100 µM (inactive) each time. Further, the GI50 with OVCAR-5, with PC-3, in the assay with SK-MEL-28, in the assay on SNB-75, with U-251 and in the assay on UACC-257 was > 100 µM (inactive) in each case.

With `Cc1coc2c1CC1OC1(C)CCC1OC1(C)C2` (stereo not given), the GI50 with A498, with ACHN, in the assay with BT-549, in the assay with DU-145, in the assay on HOP-92 and in the assay with Hs-578T was > 100 µM (inactive) in each case. The GI50 in the assay on IGROV-1, with M14, in the assay with MCF7, with MDA-MB-231, in the assay on NCI-H226 and with NCI-H460 was > 100 µM (inactive) throughout. The GI50 in the assay with OVCAR-5, in the assay with PC-3, with SK-MEL-28, in the assay with SNB-75, in the assay with U-251 and in the assay on UACC-257 was > 100 µM (inactive) in each case.

On to `CCOC(=O)C(Cc1ccc(N(CCCl)CCCl)cc1)NC(=O)C(Cc1ccccc1)NC(C)=O` (stereo not given), for which the GI50 was > 0.288 µM (active) in the assay on A498; 0.0255 µM (active) with ACHN; > 0.583 µM (active) in the assay with BT-549; > 0.582 µM (active) in the assay with DU-145; 0.621 µM (active) in the assay on HOP-92; > 0.368 µM (active) in the assay with Hs-578T. For the same compound, the GI50 is 0.0414 µM (active) with IGROV-1; 0.141 µM (active) in the assay on M14; 0.163 µM (active) in the assay with MCF7; > 0.284 µM (active) in the assay on MDA-MB-231; > 1 µM (active) in the assay with NCI-H226; 0.222 µM (active) in the assay with NCI-H460. In addition, the GI50 with OVCAR-5 is > 0.293 µM (active); in the assay with PC-3, > 0.254 µM (active); in the assay with SNB-75, > 1 µM (active); with U-251 it was > 0.316 µM (active); in the assay on UACC-257, 0.235 µM (active).

`CCOc1cc2c(cc1O)C(O)C[C@@H]1[C@@H]2CC[C@]2(C)[C@@H](O)CC[C@@H]12` (stereo not given in full): the GI50 with A498 was 0.0501 µM (active); in the assay with ACHN, 0.553 µM (active); in the assay on BT-549, 39.1 µM (inactive); with DU-145, 0.59 µM (active); with HOP-92, 12.5 µM (inactive); in the assay with HT-29, 4.44 µM (inactive). For the same compound, the GI50 was 0.46 µM (active) in the assay on Hs-578T; 0.431 µM (active) in the assay with IGROV-1; 0.575 µM (active) with M14; 0.268 µM (active) in the assay on MCF7; 1.25 µM (inactive) with MDA-MB-231; 0.552 µM (active) with NCI-H226. Moreover, the GI50 in the assay on NCI-H460 was 0.265 µM (active); in the assay with OVCAR-5, 52.2 µM (inactive); with PC-3, 3.44 µM (inactive); with SNB-75 it was 0.619 µM (active); with U-251, 0.394 µM (active); in the assay with UACC-257, 0.444 µM (active).

Regarding `CCOC(=O)C(Cc1ccc(N(CCCl)CCCl)cc1)NC(=O)C(Cc1ccccc1)NC=O` (stereo not given), the GI50 was 0.273 µM (active) in the assay with A498; 0.00959 µM (active) in the assay on ACHN; 0.437 µM (active) with BT-549; 0.139 µM (active) in the assay on DU-145; 0.126 µM (active) in the assay on HOP-92; 0.142 µM (active) in the assay on HT-29. Moreover, the GI50 with Hs-578T is 0.388 µM (active); in the assay on IGROV-1 it was 0.0492 µM (active); in the assay with M14 it was 0.102 µM (active); in the assay on MCF7, 0.143 µM (active); in the assay on MDA-MB-231 it was 0.262 µM (active); in the assay on NCI-H460, 0.261 µM (active). In addition, the GI50 was 0.337 µM (active) with OVCAR-5, 0.27 µM (active) in the assay on PC-3, 0.205 µM (active) in the assay on U-251 and 0.24 µM (active) in the assay with UACC-257.

Consider `O=S1(=O)c2ccccc2N(c2ccccc2)c2nnnn21`, for which the GI50 with A498 was 23.6 µM (inactive); in the assay on ACHN, 29.4 µM (inactive); with BT-549, 22.8 µM (inactive); with DU-145 it was 34.5 µM (inactive); in the assay with HOP-92 it was 35 µM (inactive); in the assay on HT-29, 20.6 µM (inactive). Also, the GI50 in the assay on Hs-578T is 56.6 µM (inactive); in the assay with IGROV-1 it was 32.3 µM (inactive); with M14 it was 20.9 µM (inactive); in the assay with MCF7 it was 36.6 µM (inactive); with MDA-MB-231, 25.6 µM (inactive); with NCI-H226, 36.1 µM (inactive). For the same compound, the GI50 with NCI-H460 was 31.3 µM (inactive); with OVCAR-5, 33.3 µM (inactive); in the assay on PC-3 it was 44.3 µM (inactive); in the assay with SK-MEL-28, 22.4 µM (inactive); with U-251, 32.7 µM (inactive); in the assay with UACC-257 it was 42.3 µM (inactive).
